Target: T1, TRPV1 (vanilloid receptor)
T1 construct: native receptor in hemocytes
Test: radioligand saturation binding, rapid filtration
Format: cell-based, Mytilus galloprovincialis

Which Kd does the source give for `C=C(C)[C@]12C[C@@H](C)[C@@]34O[C@](Cc5ccccc5)(O[C@@H]1[C@@H]3C=C(COC(=O)Cc1ccc(O)c(OC)c1)C[C@]1(O)C(=O)C(C)=C[C@@H]41)O2` [resiniferatoxin] here?
Its Kd is 0.413 ± 0.168 nM.

Reference: paper PMC8125337 (International Journal of Molecular Sciences, 2021)
